In paper PMC6792352, “Limited Chemical Structural Diversity Found to Modulate Thyroid Hormone Receptor in the Tox21 Chemical Library” (Environmental Health Perspectives, 2019):
Where a name gives a salt, the structure may show the parent alone.

Assay: in vitro
Details: rat, gh3-tre-luc cells

Structure (SMILES)	CC50 at 24 h (AC50 (uM) modified / 1000)	other results
CCN(CC)CCC(=O)N1c2ccccc2Sc2ccc(C(F)(F)F)cc21 [Fluacizine]	20.5 µM	
Cc1ccccc1-n1c(C)nc2ccccc2c1=O [Methaqualone]	> 50 µM	
COc1ccc(C(=O)Nc2ccccc2CCC2CCCCN2C)cc1 (stereo not drawn) [Encainide hydrochloride]	> 50 µM	
COc1cc(C)cc(O)c1 [3-Methoxy-5-methylphenol]	> 90 µM	
CC(=O)c1ccc([N+](=O)[O-])cc1 [4-Nitroacetophenone]	> 90 µM	
O=C(Cl)c1ccccc1[N+](=O)[O-] [2-Nitrobenzoyl chloride]	> 90 µM	
CCN(CCO)CCCC(C)Nc1ccnc2cc(Cl)ccc12 (stereo not drawn) [Hydroxychloroquine sulfate]	> 50 µM	
C[C@H](/C=C/[C@H](C)C(C)(C)O)[C@H]1CC[C@H]2/C(=C/C=C3C[C@@H](O)C[C@H](O)C3)CCC[C@]12C [Paricalcitol]	27 µM	
O=C(NOCC1CC1)c1ccc(F)c(F)c1Nc1ccc(I)cc1Cl [C.I. 1040]	21.1 µM	
CN(C)CCCN1c2ccccc2C(C)(C)c2ccccc21 [Dimetacrine]	14.8 µM	
CC(C)(C#N)C(C)(C)C#N [Tetramethylsuccinonitrile]		CC50 at 24 h (AC50 (uM) modified / 1000, Tox21_110001=Tox21_200573, viability, 1 nM T3 present, 24 h): > 90 µM
COC(=O)Nc1cccc(OC(=O)Nc2cccc(C)c2)c1 [Phenmedipham]		CC50 at 24 h (AC50 (uM) modified / 1000, Tox21_110001=Tox21_201295, viability, 1 nM T3 present, 24 h): > 90 µM
CC(C)[N+](=O)[O-] [2-Nitropropane]		CC50 at 24 h (AC50 (uM) modified / 1000, Tox21_110001=Tox21_200365, viability, 1 nM T3 present, 24 h): > 90 µM
CCC[C@@]1(CCc2ccccc2)CC(O)=C([C@H](CC)c2cccc(NS(=O)(=O)c3ccc(C(F)(F)F)cn3)c2)C(=O)O1 [Tipranavir]	> 50 µM	
CN[C@@H]1[C@H](O[C@H]2[C@H](O[C@H]3[C@H](O)[C@@H](O)[C@H](NC(=N)N)[C@@H](O)[C@@H]3NC(=N)N)O[C@@H](C)[C@]2(O)CO)O[C@@H](CO)[C@H](O)[C@H]1O [Dihydrostreptomycin sulfate]	> 50 µM	
C[C@]12CC[C@@H]3c4ccc(O)cc4CC[C@H]3[C@@H]1C[C@@H](O)[C@@H]2O [Estriol]	> 90 µM	
CCOP(=O)(OCC)OP(=O)(OCC)OCC [Tetraethyl pyrophosphate]		CC50 at 24 h (AC50 (uM) modified / 1000, Tox21_110001=Tox21_301172, viability, 1 nM T3 present, 24 h): > 90 µM
O=[N+]([O-])c1ccccc1C(F)(F)F [1-Nitro-2-(trifluoromethyl)benzene]	> 90 µM	

Structure (SMILES)	CC50 at 24 h (AC50 (uM) modified / 1000)	other results
CCCCCCCC/C=C/CCCOC(C)=O [(E)-4-Tridecen-l-yl acetate]	> 90 µM	
CC1CC(CC2CCC(N)C(C)C2)CCC1N (stereo not drawn) [Bis(4-amino-3-methylcyclohexyl)methane]	46.8 µM	
CC(=O)OC1CCC(C(C)(C)C)CC1 (stereo not drawn) [4-tert-Butylcyclohexyl acetate]	> 90 µM	
CCCCCCCCCCCCCCCC(=O)OCCC1CCN(CCCN2c3ccccc3Sc3ccc(S(=O)(=O)N(C)C)cc32)CC1 [Pipothiazine palmitate]	> 50 µM	
COc1ccc2c3c1O[C@H]1[C@H](O)CC[C@H]4[C@@H](C2)N(C)CC[C@@]341 [Dihydroisocodeine]	> 90 µM	
C=C(C)C(=O)OCCOCC [2-Ethoxyethyl methacrylate]	> 90 µM	
O=[N+]([O-])c1ccc(Nc2ccc(Nc3ccccc3)c(S(=O)(=O)O)c2)c([N+](=O)[O-])c1 [C.I. Acid Orange 3]		CC50 at 24 h (AC50 (uM) modified / 1000, Tox21_110001=Tox21_301886, viability, 1 nM T3 present, 24 h): 76.1 µM
O=C(/C=C/c1ccccc1)OCCCc1ccccc1 [3-Phenylpropyl cinnamate]	> 90 µM	
O=C(O[C@H]1C[C@H]2CC[C@@H](C1)[N+]21CCCC1)C(O)(c1ccccc1)c1ccccc1 [Trospium chloride]	> 50 µM	
Cc1ccc(C)cc1 [p-Xylene]	> 90 µM	
O=C(O)CC(C(=O)O)S(=O)(=O)O (stereo not drawn) [Sulfosuccinic acid]	> 90 µM	
CC(=O)N[C@H]1C(O)O[C@H](CO)[C@H](O)[C@@H]1O (stereo partly drawn) [N-Acetylgalactosamine]	> 50 µM	
Cc1cccc(C)c1N(CCCc1cccnc1)C(=O)C(C)N (stereo not drawn) [Ro 22-9194]	> 50 µM	
CCN [Ethylammonium nitrate]		CC50 at 24 h (AC50 (uM) modified / 1000, Tox21_110001=Tox21_200578, viability, 1 nM T3 present, 24 h): > 90 µM
COc1cc(C[C@@H]2NCCc3cc(O)c(O)cc32)cc(OC)c1OC [Trimethoquinol]	> 50 µM	
CC(=O)O[C@@H]1C[C@H]2CC[C@]1(C)C2(C)C [Isobornyl acetate]	> 90 µM	
NC(N)=NCCCCN=C(N)N [1,1'-Tetramethylenediguanidine sulfate]	> 50 µM	
Oc1ccc(Cl)cc1Cl [2,4-Dichlorophenol]	> 90 µM	
